Toxic doses and inconclusive results are not listed. Peptide text beside a SMILES is read from it. * marks the point of attachment. Trt = c1ccc(C(c2ccccc2)(c2ccccc2)*)cc1; Benzhydryl = c1ccc(C(c2ccccc2)*)cc1; Cbz = O=C(OCc1ccccc1)*; OtBu = CC(C)(C)O*
System: P388 leukemia ip, CD2F1 mice, survival T/C
Experiment: NCI In Vivo Anticancer Drug Screen. Data for tumor model P388 Leukemia (intraperitoneal) in CD2F1 (CDF1) mice
Settings: endpoint: median survival time, higher = longer survival
Summary of the method: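 Mice carrying the transplanted tumor received test compound or vehicle. Survival was recorded in each group, and the value is the treated-group measurement divided by that of the vehicle-treated control group.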

[1] = dose: 60.0 mg/kg/injection, schedule: Q01DX005 (ip), vehicle: saline with Tween-80
[2] = dose: 120.0 mg/kg/injection, schedule: Q01DX005 (ip), vehicle: saline with Tween-80
[3] = dose: 240.0 mg/kg/injection, schedule: Q01DX005 (ip), vehicle: saline with Tween-80
[4] = dose: 100.0 mg/kg/injection, schedule: Q01DX009 (ip), vehicle: suspension in saline
[5] = dose: 200.0 mg/kg/injection, schedule: Q01DX009 (ip), vehicle: suspension in saline

Question: With NNc1ccc(Cl)nn1 as the compound, how does the T/C (dose: 7.5 mg/kg/injection, schedule: Q01DX005 (ip), vehicle: saline with Tween-80) read?
Answer: 101 % of control

Question: And the T/C (dose: 15.0 mg/kg/injection, schedule: Q01DX005 (ip), vehicle: saline with Tween-80)?
Answer: 99 % of control

Question: With CC(=O)Nc1ccc2c(C)cc(Cl)nc2c1 as the compound, how does the T/C [1] read?
Answer: 95 % of control

Question: What about the T/C [2] of the same compound?
Answer: 90 % of control

Question: And the T/C [3]?
Answer: 89 % of control

Question: For O=C1NC(=O)C2C3C=CC(C12)C1C2CCOC2C31 (stereo unspecified), which T/C (dose: 50.0 mg/kg/injection, schedule: Q01DX005 (ip), vehicle: saline with Tween-80) is on record?
Answer: 104 % of control

Question: What about the T/C (dose: 100.0 mg/kg/injection, schedule: Q01DX005 (ip), vehicle: saline with Tween-80) of the same compound?
Answer: 100 % of control

Question: What about the T/C (dose: 200.0 mg/kg/injection, schedule: Q01DX005 (ip), vehicle: saline with Tween-80) of the same compound?
Answer: 99 % of control

Question: Cc1ccc(N2C(=O)CCSC2=S)cc1C was tested. Which T/C (dose: 50.0 mg/kg/injection, schedule: Q01DX009 (ip), vehicle: suspension in saline) did it give?
Answer: 108 % of control

Question: What about the T/C [4] of the same compound?
Answer: 89 % of control

Question: And the T/C [5]?
Answer: 99 % of control

Question: For CN1C2CCC1CC(Cl)C2 (stereo unspecified), which T/C (dose: 6.0 mg/kg/injection, schedule: Q01DX005 (ip), vehicle: saline) is on record?
Answer: 107 % of control

Question: What about the T/C (dose: 7.5 mg/kg/injection, schedule: Q01DX005 (ip), vehicle: saline) of the same compound?
Answer: 91 % of control

Question: And the T/C (dose: 12.0 mg/kg/injection, schedule: Q01DX005 (ip), vehicle: saline)?
Answer: 107 % of control

Question: What about the T/C (dose: 15.0 mg/kg/injection, schedule: Q01DX005 (ip), vehicle: saline) of the same compound?
Answer: 99 % of control

Question: And the T/C (dose: 25.0 mg/kg/injection, schedule: Q01DX005 (ip), vehicle: saline)?
Answer: 102 % of control

Question: And the T/C (dose: 30.0 mg/kg/injection, schedule: Q01DX005 (ip), vehicle: saline)?
Answer: 99 % of control

Question: Which results are given for CC12CC=CCC1CCC1C2CCC2(C)C(O)C(O)CC12 (stereo unspecified)?
Answer: T/C (dose: 50.0 mg/kg/injection, schedule: Q01DX005 (ip), vehicle: Klucel (hydroxypropylcellulose) (HPC)): 101 % of control; T/C (dose: 100.0 mg/kg/injection, schedule: Q01DX005 (ip), vehicle: Klucel (hydroxypropylcellulose) (HPC)): 95 % of control; T/C (dose: 200.0 mg/kg/injection, schedule: Q01DX005 (ip), vehicle: Klucel (hydroxypropylcellulose) (HPC)): 93 % of control

Question: What does the source list for COc1nc2nc(SC(CC(=O)O)C(=O)c3ccc(Cl)cc3)[nH]c2c2ccccc12 (stereo unspecified)?
Answer: T/C [1]: 97 % of control; T/C [2]: 95 % of control; T/C [3]: 92 % of control

Question: Which results are given for CC(C)(C)OC(=O)CNC(=O)C(Cc1ccccc1)NC(=O)C(CSC(c1ccccc1)(c1ccccc1)c1ccccc1)NC(=O)CNC(=O)C(Cc1ccccc1)NC(=O)CNC(=O)C(CSC(c1ccccc1)c1ccccc1)NC(=O)C(CSC(c1ccccc1)(c1ccccc1)c1ccccc1)NC(=O)OCc1ccccc1 (stereo unspecified) (Cbz-C(Trt)C(Benzhydryl)GFGC(Trt)FG-OtBu; configuration not given here)?
Answer: T/C (dose: 60.0 mg/kg/injection, schedule: Q01DX005 (ip), vehicle: Klucel (hydroxypropylcellulose) (HPC)): 100 % of control; T/C (dose: 120.0 mg/kg/injection, schedule: Q01DX005 (ip), vehicle: Klucel (hydroxypropylcellulose) (HPC)): 98 % of control

Question: With O=[N+]([O-])C(CO)C(CO)[N+](=O)[O-] (stereo unspecified) as the compound, how does the T/C (dose: 100.0 mg/kg/injection, schedule: Q01DX009 (ip), vehicle: Klucel (hydroxypropylcellulose) (HPC)) read?
Answer: 110 % of control

Question: And the T/C [4]?
Answer: 103 % of control

Question: And the T/C (dose: 200.0 mg/kg/injection, schedule: Q01DX009 (ip), vehicle: Klucel (hydroxypropylcellulose) (HPC))?
Answer: 108 % of control

Question: What about the T/C [5] of the same compound?
Answer: 100 % of control

Question: And the T/C (dose: 400.0 mg/kg/injection, schedule: Q01DX009 (ip), vehicle: Klucel (hydroxypropylcellulose) (HPC))?
Answer: 111 % of control

Question: What about the T/C (dose: 400.0 mg/kg/injection, schedule: Q01DX009 (ip), vehicle: suspension in saline) of the same compound?
Answer: 109 % of control

Question: Which T/C (dose: 50.0 mg/kg/injection, schedule: Q01DX009 (ip), vehicle: saline with Tween-80) does the source give for O=C1C(Cl)=C(Nc2ccc(C#Cc3ccccc3)cc2)C(=O)C(Cl)=C1Nc1ccc(C#Cc2ccccc2)cc1 here?
Answer: 91 % of control

Question: And the T/C (dose: 100.0 mg/kg/injection, schedule: Q01DX009 (ip), vehicle: saline with Tween-80)?
Answer: 91 % of control

Question: What about the T/C (dose: 200.0 mg/kg/injection, schedule: Q01DX009 (ip), vehicle: saline with Tween-80) of the same compound?
Answer: 87 % of control

Question: Which T/C (dose: 50.0 mg/kg/injection, schedule: Q01DX001 (ip), vehicle: saline with Tween-80) does the source give for CCOC(=O)C(C)(C)CN1COCC1(C)C here?
Answer: 104 % of control

Question: What about the T/C (dose: 100.0 mg/kg/injection, schedule: Q01DX001 (ip), vehicle: saline with Tween-80) of the same compound?
Answer: 104 % of control

Question: And the T/C (dose: 200.0 mg/kg/injection, schedule: Q01DX001 (ip), vehicle: saline with Tween-80)?
Answer: 118 % of control

Question: CC(=O)[C@]1(O)Cc2c(O)c3c(c(O)c2[C@@H](OC2CC(NC(=O)C(F)(F)F)C(O)C(C)O2)C1)C(=O)c1c(O)cccc1C3=O (stereo partly specified) was tested. Which T/C (dose: 12.5 mg/kg/injection, schedule: Q04DX003 (ip), vehicle: water) did it give?
Answer: 96 % of control

Question: And the T/C (dose: 25.0 mg/kg/injection, schedule: Q04DX003 (ip), vehicle: water)?
Answer: 118 % of control

Question: What about the T/C (dose: 100.0 mg/kg/injection, schedule: Q04DX003 (ip), vehicle: water) of the same compound?
Answer: 118 % of control

Question: And the T/C (dose: 200.0 mg/kg/injection, schedule: Q04DX003 (ip), vehicle: water)?
Answer: 214 % of control

From PubChem BioAssay AID330 (DTP/NCI, 2004)
